# Patent US8415340B2, “Triazine kinase inhibitors” (Bristol-Myers Squibb Company, priority 2007, dated 2013)
# System: IGF1R-Sal tumors
# Assay: IGF-1R Sal Tumor Model
# Type: in vivo
# Details: orally, qd × 4 days, nude mice bearing IGF1R-Sal tumors
# Procedure: P. IGF-1R Sal Tumor Model
# A salivary gland adenocarcinoma that developed spontaneously in a transgenic mouse (MCI-19) was excised and cut into fragments of about 20 mg. Tumor fragments were implanted s.c. into the ventral thoracic region of a group of six female, athymic BALB/c nu/nu mice (Harley Sprague-Dawley, Indianapolis, Ind.), using a 13-gauge trocar. Once established, the salivary gland-derived tumor line was designated IGF1R-Sal and was propagated as a tumor xenograft in nude mice. Tumors were passaged every 2 weeks, at which time the tumor reached f500 to 1,000 mm3 in size. For treatment studies, nude micebearing IGF1R-Sal tumors of about 100 mm3 in size were sorted into groups of five for treatment with vehicle (80% polyethylene glycol 400 in water) alone or the test article. Compounds were administered either on a bid schedule (oral doses 8 hours apart) or on a once a day schedule orally (qd) for 4 consecutive days. Tumors were measured at the start and end of treatment. Activity was measured as % tumor growth inhibition (% TGI). The % TGI was determined using the following formula (Ct−Tt)/(Ct−Co) where Ct is defined as the median tumor size of the control group at the end of treatment, Co is defined as the median tumor size of the control group at the start of treatment, and Tt is defined as the median tumor size of the treated group at the end of treatment.
smiles,measurement,setting,value
"CO[C@H]1C[C@@H](C(=O)Nc2cnccn2)N(c2nc(Nc3cc(C4CC4)n[nH]3)nc(N3CCOCC3)n2)C1 [Example 18, (2S,4S)-1-(4-(3-Cyclopropyl-1H-pyrazol-5-ylamino)-6-morpholino-1,3,5-triazin-2-yl)-4-methoxy-N-(pyrazin-2-yl)pyrrolidine-2-carboxamide]",% TGI (3.13 mpk),3.13 mpk,96%
"CN1CCN(c2nc(Nc3cc(C4CC4)n[nH]3)nc(N3C[C@H](F)C[C@H]3C(=O)Nc3ncns3)n2)CC1 [Example 83, (2S,4R)-1-(4-(3-Cyclopropyl-1H-pyrazol-5-ylamino)-6-(4-methylpiperazin-1-yl)-1,3,5-triazin-2-yl)-4-fluoro-N-(1,2,4-thiadiazol-5-yl)pyrrolidine-2-carboxamide]",% TGI (50 mpk),50 mpk,27%
"O=C(Nc1cnccn1)[C@@H]1C[C@H](O)CN1c1nc(Nc2cc(C3CC3)n[nH]2)nc(N2CCOCC2)n1 [Example 85, (2S,4S)-1-(4-(3-Cyclopropyl-1H-pyrazol-5-ylamino)-6-morpholino-1,3,5-triazin-2-yl)-4-hydroxy-N-(pyrazin-2-yl)pyrrolidine-2-carboxamide]",% TGI (6.25 mpk),6.25 mpk,49%
